# How the values were obtained:
# Experiment in all cases: relative viability (nuclei count vs DMSO), 5 days (fraction); higher = more cells survive
# [1] = compound: C=CC(=O)Nc1cc(-n2c(=O)ccc3cnc4ccc(-c5ccc(NS(C)(=O)=O)cc5)cc4c32)ccc1C [BMX-IN-1] + CC(C)C[C@H](NC(=O)[C@H](Cc1ccccc1)NC(=O)c1cnccn1)B(O)O [Bortezomib] (partner 0.002 µM)
# Procedure, shortened: (§1)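 Relative viability was taken as the ratio of nuclei in treated wells to nuclei in vehicle wells. Lung cancer cell lines in 1536-well plates received compounds by pin tool one day after seeding, either one drug alone or a fixed anchor-drug dose plus five library-drug doses (not always all listed) in √10 steps. Nuclei were counted on 4× images after 5 days of treatment, and values are medians of duplicate plates.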
# [2] = compound: C=CC(=O)Nc1cc(-n2c(=O)ccc3cnc4ccc(-c5ccc(NS(C)(=O)=O)cc5)cc4c32)ccc1C [BMX-IN-1] + Cc1cc(Nc2cc(N3CCN(C)CC3)nc(Sc3ccc(NC(=O)C4CC4)cc3)n2)n[nH]1 [Tozasertib] (partner 0.1 µM)
# Procedure, shortened: as §1
# [3] = compound: C=CCc1cccc(/C=N/NC(=O)CN2CCN(Cc3ccccc3)CC2)c1O [PAC-1] + CC1(C)CCC(c2ccc(Cl)cc2)=C(CN2CCN(c3ccc(C(=O)NS(=O)(=O)c4ccc(N[C@H](CCN5CCOCC5)CSc5ccccc5)c(S(=O)(=O)C(F)(F)F)c4)cc3)CC2)C1 [Navitoclax] (partner 0.5 µM)
# Procedure, shortened: as §1
# [4] = compound: C=CCc1cccc(/C=N/NC(=O)CN2CCN(Cc3ccccc3)CC2)c1O [PAC-1] + Nc1nc2[nH]cc(CCc3ccc(C(=O)N[C@@H](CCC(=O)O)C(=O)O)cc3)c2c(=O)[nH]1 [Pemetrexed] (partner 0.2 µM)
# Procedure, shortened: as §1
# [5] = compound: C=CCc1cccc(/C=N/NC(=O)CN2CCN(Cc3ccccc3)CC2)c1O [PAC-1] + Nc1ncn([C@H]2C[C@H](O)[C@@H](CO)O2)c(=O)n1 [Decitabine] (partner 2 µM)
# Procedure, shortened: as §1
Cell Line,relative viability ([1]; first compound 0.02 µM),relative viability ([1]; first compound 0.2 µM),relative viability ([1]; first compound 0.6325 µM),relative viability ([1]; first compound 2 µM),relative viability ([2]; first compound 0.02 µM),relative viability ([2]; first compound 0.2 µM),relative viability ([2]; first compound 0.6325 µM),relative viability ([2]; first compound 2 µM),relative viability ([3]; first compound 0.02 µM),relative viability ([3]; first compound 0.06325 µM),relative viability ([3]; first compound 0.2 µM),relative viability ([3]; first compound 2 µM),relative viability ([4]; first compound 0.02 µM),relative viability ([4]; first compound 0.06325 µM),relative viability ([4]; first compound 0.2 µM),relative viability ([4]; first compound 2 µM),relative viability ([5]; first compound 0.02 µM),relative viability ([5]; first compound 0.06325 µM),relative viability ([5]; first compound 0.2 µM),relative viability ([5]; first compound 2 µM)
NCI-H1650,0.178,0.203,0.201,0.186,0.374,0.503,0.364,0.41,1.18,1.15,1.22,1.04,0.365,0.387,0.321,0.387,0.447,0.441,0.344,0.371
HCC-15,1.25,1.06,1.24,1.1,0.449,0.53,0.531,0.398,0.735,0.685,0.676,0.74,0.216,0.234,0.247,0.22,0.628,0.685,0.56,0.599
UMC-11,0.929,0.625,1.19,0.791,0.194,0.197,0.244,0.196,0.334,0.311,0.308,0.318,0.78,0.791,0.802,0.79,0.668,0.681,0.265,0.68
NCI-H2087,1.09,0.959,1.07,0.814,0.244,0.24,0.344,0.263,1.15,0.991,0.965,0.998,0.675,0.641,0.663,0.724,0.303,0.305,0.233,0.28
NCI-H3122,1.04,0.974,1.05,0.994,0.516,0.399,0.461,0.117,0.975,1.02,1.01,0.993,0.196,0.199,0.201,0.207,0.489,0.455,0.362,0.446
NCI-H838,0.724,0.803,0.95,0.777,0.322,0.318,0.279,0.313,1.08,1.12,1.08,1.21,0.22,0.235,0.238,0.206,0.425,0.45,0.462,0.445
NCI-H441,0.483,0.517,0.483,0.27,0.58,0.873,0.761,0.846,0.435,0.645,0.587,0.56,0.296,0.254,0.28,0.237,0.256,0.258,0.171,0.23

# Reference: the supplement of paper PMC10307832
